Key:
[1] = tested on: cells with BRG1 knockdown; assay: ACY1215 sensitivity after knockdown of SWI/SNF subunit BRG1; type: cell-based
Protocol: Retrovirus production and transduction were performed as described in Aird et al. Cell Reports 2013, 3, 1252-1265, and Bitler et al. Nat. Med. 2015, 21, 231-238. Phoenix cells were used to package the viruses. Lentivirus was packaged using the Virapower Kit from Life Technologies (Carlsbad, Calif.) following the manufacturer's instructions, and as described Aird et al. Cell Reports 2013, 3, 1252-1265, and Bitler et al. Nat. Med. 2015, 21, 231-238. pLKO.1-shARID1As (TRCN0000059090), pLKO.1-shp53 (TRCN0000010814 and TRCN0000003755), pLKO.1-shHDAC6 (TRCN0000004839 and TRCN0000004841), pLKO.1-shCaspase 3 (TRCN0000003550), shCaspase 9 (TRCN0000003583), shCaspase 8 (TRCN0000003577 and TRCN0000003579)and shBRG1 (TRCN0000015549 and TRCN0000015552) were obtained from Open Biosystems. A shRNA to luciferase was used as a control. […] Cells infected with viruses encoding the puromycin resistance gene were selected in 1 μg/ml puromycin.

[2] = tested on: ARID1A wild-type RMG1 tumors; assay: intrabursal orthotopic xenograft, ARID1A wild-type RMG1; type: in vivo, mice
Protocol: The consecutive sections of tumors dissected from the indicated treatment groups were subjected to immunohistochemical staining for HDAC6, Ki67, cleaved caspase 3 and p53K120AC. Scale bar=100 μm.
Histological score (H-score) was calculated for 5 separate fields from 6 tumors from 6 individual mice from each of the indicated groups. Error bars represent S.E.M. The p-values were calculated via two-tailed t-test.
Immunofluorescence and immunohistochemical staining was performed as follows. Immunofluorescence was performed after 48 hours as indicated by fixing samples in 4% paraformaldehyde and permeabilizing with 0.5% Triton-X. Samples were incubated with primary antibodies for 2 hours at room temperature, highly cross absorbed secondary antibodies (Invitrogen) for 1 hour at room temperature and mounted with prolong anti-fade reagent (Invitrogen). […] Expression of the stained markers was scored using a histologic score (H score) as previously described. […]
The intrabursal orthotopic xenograft in vivo model was performed as described previously (Bitler et al. Nat. Med. 2015, 21, 231-238; Bitler et al. Cancer Research 2011, 71, 6184-6194). […] Images were analyzed using Live Imaging 4.0 software. At end of the experiments, tumors were surgically dissected and tumor burden was calculated based on tumor weight. Intraperitoneally disseminated tumor nodules were quantified.

[3] = tested on: Arid1a−/−/Pik3caH1047R clear cell ovarian tumours; assay: Arid1a−/−/Pik3caH1047R genetic clear cell ovarian tumour mouse model; type: in vivo, mice; settings: 50 mg/kg, 21 days
Excerpt: Arid1a−/−/Pik3caH1047R genetic clear cell ovarian tumour mouse model. All experiments were approved by IACUC. Transgenic mice with latent mutations in Arid1a and Pik3ca were generated by crossing Arid1aflox/floxmice (kindly provided by Dr. Wang, U. Michigan and crossed onto a C57BL/6J background for 9 generations) with R26-Pik3caH1047R mice carrying inducible Pik3ca mutations (Jackson Laboratory, Jax #016977). Gao et al, 2008, Proc Natl Acad Sci USA 105, 6656-6661. Administration of intrabursal adeno-Cre, performed as previously reported, Scarlett et al. 2012, J Exp Med 209, 495-506, induce ovarian clear cell carcinoma in ˜45 days, which is similar to a previous report. All mice were maintained in specific pathogen-free barrier facilities. To induce tumorigenesis, 6-10 weeks old Pik3caH1047R/Arid1aflox/flox female mice were intrabursally injected adenovirus-Cre as previously described. Mice were randomized and treated with ACY1215 (50 mg/kg) or vehicle control for 21 days as previously published. Following treatment mice were sacrificed and the reproductive tracts were removed. The changes in volumes of tumours formed on the injected ovary were calculated against the contrary side non-injected ovary from the same mice.

[4] = tested on: p53 acetylation (lysine 120, 373, 382) in ARID1A-mutated TOV21G cells; assay: immunoblot of p53 acetylation, TOV21G; type: cell-based, human; settings: 1.25 μM
Protocol: Expression of the indicated proteins was determined by immunoblot. GAPDH expression was used as a loading control.
For immunoblotting, protein was isolated as described in Bitler et al. Nat. Med. 2015, 21, 231-238. Briefly, protein was extracted with RIPA buffer (150 mM NaCl, 1% NP40, 0.5% sodium deoxycholate, 0.1% SDS, 50 mM Tris pH 8.0, and 1 mM PMSF). Protein was separated on a SDS-PAGE and transferred to PVDF membrane. For immunoblot of p53 post-translation modifications, cells were treated with a proteasome inhibitor MG132 (10 μM) to stabilize p53 protein.

O=C(CCCCCCNC(=O)c1cnc(N(c2ccccc2)c2ccccc2)nc1)NO [rocilinostat, 2-(diphenylamino)-N-(7-(hydroxyamino)-7-oxoheptyl)pyrimidine-5-carboxamide]
effect of BRG1 knockdown on sensitivity [1]: did not increase | growth, tumor burden, dissemination of ARID1A wild-type tumors ([2]; 50 mg/kg daily, 3 weeks): did not significantly affect the growth, tumor burden or dissemination | expression of Ki67, cleaved caspase 3, p53K120Ac (IHC) ([2]; ARID1A wild-type tumors): did not affect the expression of Ki67, cleaved caspase 3, or p53K120Ac | tumour growth [3]: significantly suppressed the tumour growth | acetylation status of lysine 373 or 382 residue of p53 [4]: unchanged | p53K120Ac level [4]: upregulated
